In patent US8309767B2, “2-aminobenzoyl derivatives” (Neurim Pharmaceuticals (1991) Ltd., priority 2003, dated 2012):

Legend:
[1] = test system: MPTP-treated mice; assay: Anti-Parkinsonian activity: motor activity of MPTP-treated mice with/without a subthreshold dose of L-Dopa; format: in vivo, C57 BL/6 mice; details: for LOCOMOTION / REARING / TOTAL ACTIVITY: mean ± SD
Experimental: Evaluation of the anti-Parkinsonian activity using MPTP-treated mice with/without a subthreshold dose of L-Dopa
Animals: six month old male C57 BL/6 mice, weighing 22-25 g were used. Following arrival at the laboratory, the mice were allowed to acclimatise for two weeks in a room with controlled temperature (21±1° C.), and a constant light-dark schedule (12 hr on/12 hr off, lights on between 06.00 and 18.00 hrs). Free access to food and water was maintained throughout. They were housed in groups of 12 animals and tested only during the hours of light (08.00-15.00 hrs). All testing was performed in a normally lighted room. Each test chamber (i.e. activity test cage) was placed in a soundproofed wooden box with 12 cm thick walls and front panels and had dimmed lighting.
Behavioral measurements and apparatus: An automated device, consisting of macrolon rodent test cages (40×25×15 cm) each placed within two series of infra-red beams (at two different heights, one low and one high, 2 and 8 cm, respectively, above the surface of the sawdust, 1 cm deep), was used to measure spontaneous and/or drug-induced motor activity of MPTP and control mice. The following parameters were measured: LOCOMOTION was measured by the low grid of infrared beams. Counts were registered only when the mouse in the horizontal plane, ambulating around the test-cage. REARING was registered throughout the time when at least one high level beam was interrupted, i.e. the number of counts registered was proportional to the amount of time spent rearing. TOTAL ACTIVITY was measured by a sensor (a pick-up similar to a gramophone needle, mounted on a lever with a counterweight) with which the test cage was constantly in contact. The sensor registered all types of vibration received from the test cage, such as those produced both by locomotion and rearing as well as shaking, tremors, scratching and grooming.
Behavioral measurements (locomotion, rearing and total activity): Twelve days after MPTP injections (2×40 mg/kg, s.c., 24 hr interval), the mice were injected i.p with 2-(2-aminobenzoyl)-N-(2,4-dinitrophenyl)ethylamine (0.3, 1, 3, 10 mg/kg) or vehicle (10% DMSO, 1% CMC) and immediately thereafter placed in the activity test chambers and their motor behaviour were monitored for 60 min. After 60 min, the mice were injected with 5 mg/kg L-Dopa (s.c) and then replaced in the test chamber and activity measurements maintained for a further 240 min. Each dose was separated by two days, starting from the lowest dose.
Table 1 presents the mean (± standard deviations) locomotion, rearing and total activity counts of MPTP-treated and control mice administered either 2-(2-aminobenzoyl)-N-(2,4-dinitrophenyl)ethylamine or vehicle administered with a subthreshold dose of L-Dopa. 1 % level of significance is represented by an asterisk (Tukey HSD test).

[2] = test system: NMDA receptors; assay: Electrophysiological characterisation of NMDA-activated currents in freshly isolated hippocampal neurones (whole-cell patch clamp); format: cell-based; details: rat hippocampal neurones
Experimental: Electrophysiological characterisation of NMDA-activated currents in freshly isolated hippocampal neurones of rat.
Isolation of hippocampal neurons: Wistar rats (12-14 days) were decapitated without anaesthesia and the hippocampus was removed. It was manually cut into slices (0.2-0.4 mm), in a solution containing (mM): 150 NaCl; 5 KCl; 1.25 NaH2PO4; 2 CaCl2; 2 MgCl2; 26 NaHCO3; 20 glucose. Slices were preincubated in this solution for 30 min at room temperature. The enzymatic treatment proceeded in the same solution with lower Ca2+ concentration (0.5 mm) containing 0.4 mg/ml protease from aspergillus oryzae. The incubation in the enzyme solution proceeded at 32° C. within 10 min. […]
Current recording and data analysis: The drug-containing solutions were applied by the fast “concentration clamp” method using “jumping table” set-up (Pharma Robot, Kiev). The currents were recorded with patch clamp technique in the whole-cell configuration. […]
NMDA-activated currents: The currents were filtered at 3 kHz (three-pole active Bessel filter) digitally sampled at the rate […] for NMDA activated currents. NMDA-induced transmembrane currents were measured in the presence of 10 μM glycine and 300 μM L-aspartate in the control and test solutions. The currents were recorded at holding potential −70 mV. […]

[3] = MPTP mice, 0.3 mg/kg i.p. with subthreshold L-Dopa 5 mg/kg s.c.
[4] = MPTP mice, 1 mg/kg i.p. with subthreshold L-Dopa 5 mg/kg s.c., * 1% significance
[5] = MPTP mice, 3 mg/kg i.p. with subthreshold L-Dopa 5 mg/kg s.c., * 1% significance
[6] = MPTP mice, 10 mg/kg i.p. with subthreshold L-Dopa 5 mg/kg s.c., * 1% significance

Nc1ccccc1C(=O)CCNc1ccc([N+](=O)[O-])cc1[N+](=O)[O-] [2-(2-aminobenzoyl)-N-(2,4-dinitrophenyl)ethylamine]
locomotion, rearing and total activity of MPTP-treated mice ([1]; 1, 3 or 10 mg/kg, compared to the MPTP vehicle group): improved significantly | LOCOMOTION [1, 3]: 273 ± 64 counts | REARING [1, 3]: 290 ± 73 counts | TOTAL ACTIVITY [1, 3]: 5160 ± 1093 counts | LOCOMOTION [1, 4]: 473 ± 108 counts | REARING [1, 4]: 582 ± 145 counts | TOTAL ACTIVITY [1, 4]: 6250 ± 625 counts | LOCOMOTION [1, 5]: 510 ± 107 counts | REARING [1, 5]: 731 ± 110 counts | TOTAL ACTIVITY [1, 5]: 6563 ± 781 counts | LOCOMOTION [1, 6]: 470 ± 110 counts | REARING [1, 6]: 619 ± 102 counts | TOTAL ACTIVITY [1, 6]: 6250 ± 625 counts | effect on motor behaviour in the first 60-min period before L-Dopa ([1]; MPTP mice, any dose (0.3-10 mg/kg i.p.), compared to MPTP-treated vehicle mice): no effect at any dose | all three behavioural parameters when administered together with a subthreshold dose of L-Dopa ([1]; MPTP mice, with L-Dopa 5 mg/kg s.c.): improved significantly | effect on motor variables in vehicle control animals ([1]; vehicle control (non-MPTP) animals): no effects in any variable | activity on NMDA receptors [2]: blocking activity
